Consider 44 molecules from ChEMBL document CHEMBL1124518, “Nonsteroidal cardiotonics. 2. The inotropic activity of linear, tricyclic 5-6-5 fused heterocycles” (1989).

SMILES strings stand for the structures.

For assay [1], the species on record is Rattus norvegicus. Description: Effective dose required to produce an increase in dP/dt5 by 1500 mmHg/s in rats. The class given is functional.
In assay [2] the test system is Canis familiaris. Description: Maximum increase in dP/dt when administered intravenously in dogs at 1 mg/kg dose. The class given is functional, Canis lupus familiaris. Particulars: route intravenous.
For assay [3], the system named is Canis familiaris. Description: Time after which maximum increase in contractility was observed when administered orally in conscious dogs at 1 mg/kg. In kind it is functional, Canis lupus familiaris. Particulars: route oral.
For assay [4], the species on record is Felis catus. Description: Effective dose required to produce an increase in dP/dt5 by 1500 mmHg/s in cats. The class given is functional.
In assay [5] the test system is Rattus norvegicus. The assay can be described thus: Maximum increase in dP/dt when administered intravenously in rats at 0.1 mg/kg dose. The conditions noted are these: route intravenous. In kind it is functional.
Assay [6] is filed under the species Canis familiaris. The assay can be described thus: Effective dose required to produce an increase in dP/dt5 by 1500 mmHg/s in dogs. The class given is functional, Canis lupus familiaris.
In assay [7] the test system is Canis familiaris. Description: Amount of time during which increase in administered orally in conscious dogs at 1 mg/kg. The class given is functional, Canis lupus familiaris. The conditions noted are these: route oral.
Assay [8] relates to Rattus norvegicus. The assay can be described thus: Maximum increase in dP/dt when administered intravenously in rats at 3 mg/kg dose. In kind it is functional. The conditions noted are these: route intravenous.
Assay [9] has as its system Rattus norvegicus. Description: Maximum increase in dP/dt when administered intravenously in rats at 1 mg/kg dose. More on the design: unit not given here. Particulars: route intravenous. The class given is functional.
The test system of assay [10] is Canis familiaris. The assay can be described thus: Maximum increase in dP/dt when administered intravenously in dogs at 0.3 mg/kg dose. The class given is functional, Canis lupus familiaris. Particulars: route intravenous.
In assay [11] the test system is Rattus norvegicus. Description: Maximum increase in dP/dt when administered intravenously in rats at 10 mg/kg dose. In kind it is functional. Details: unit not given here. The conditions noted are these: route intravenous.
The test system of assay [12] is Felis catus. The assay can be described thus: Maximum increase in dP/dt when administered intravenously in cats at 3 mg/kg dose. The class given is functional. The conditions noted are these: route intravenous.

On to `Oc1nc2cc3[nH]c(-c4ccncc4)nc3cc2s1`, for which the ED1.5 in the assay listed under Rattus norvegicus [1] turned out to be 0.2 mg/kg.
Take `CC1(C)C(=O)Nc2cc3[nH]c(-c4ccncc4)nc3cc21` [ADIBENDAN]: the figures for the ED1.5 in the assay filed under Rattus norvegicus [1], in the assay filed under Felis catus [4] and in the assay filed under Canis familiaris [6] were 0.01 mg/kg, 0.01 mg/kg and 0.2 mg/kg, respectively. Also, the Max in the assay with Canis familiaris [2] amounted to 2 mHg s-1; in the assay on Rattus norvegicus [5], 3.7 mmHg s-1. In addition, in the assay on Canis familiaris [3], the Time is 45 min. Further, in the assay with Canis familiaris [7], the Duration was > 6 h.
Molecule `COc1cc(S(C)(=O)=O)ccc1-c1nc2cc3c(cc2[nH]1)C(C)(C)C(=O)N3` gave an ED1.5 in the assay filed under Rattus norvegicus [1] of 2 mg/kg. Besides, the Max in the assay on Rattus norvegicus [8] came out at 1.8 mHg s-1.
`CC1(C)C(=O)Nc2cc3[nH]c(C4CCCCC4)nc3cc21`: the ED1.5 in the assay listed under Rattus norvegicus [1] is >3 mg/kg.
Consider `CC1(C)C(=O)Nc2cc3[nH]cnc3cc21`, for which the ED1.5 in the assay filed under Rattus norvegicus [1] was determined as 0.19 mg/kg; in the assay filed under Felis catus [4], 0.13 mg/kg. In addition, the Max in the assay on Rattus norvegicus [8] was 3.2 mHg s-1.
For the molecule `CCCc1nc2cc3nc(O)oc3cc2[nH]1`, the ED1.5 in the assay listed under Rattus norvegicus [1] was >3 mg/kg.
Consider `CC1(C)C(=O)Nc2cc3[nH]c(C(F)(F)F)nc3cc21`, for which the ED1.5 in the assay filed under Rattus norvegicus [1] was 0.13 mg/kg; in the assay listed under Felis catus [4], 0.08 mg/kg. In the assay on Rattus norvegicus [8], this molecule registered a Max of 2.3 mHg s-1.
Turning to `CC1(C)C(=O)Nc2cc3nc(O)oc3cc21`, the ED1.5 in the assay listed under Rattus norvegicus [1] is >3 mg/kg.
On the same count and under the same terms, the result for `Oc1nc2cc3[nH]c(-c4ccncc4)nc3cc2[nH]1` reads >3 mg/kg.
As to `COc1ccc(-c2nc3cc(C4=NNC(=O)CC4C)ccc3[nH]2)cc1` (centres undefined) [PIMOBENDAN], the figures for the ED1.5 in the assay filed under Rattus norvegicus [1], in the assay filed under Felis catus [4] and in the assay filed under Canis familiaris [6] were 1.3 mg/kg, 0.6 mg/kg and 1.1 mg/kg, respectively. For the same molecule, the Max with Canis familiaris [2] is 1.3 mHg s-1; in the assay with Rattus norvegicus [8], 2 mHg s-1. In the assay with Canis familiaris [3], this molecule showed a Time of 30 min. In addition, in the assay on Canis familiaris [7], the Duration was determined as 6 h.
`Cn1c(O)nc2cc3[nH]c(-c4ccnnc4)nc3cc21` returned an ED1.5 in the assay listed under Rattus norvegicus [1] of 0.19 mg/kg. Further, the Max in the assay with Rattus norvegicus [9] is listed as 2.7. In the assay with Canis familiaris [7], this molecule yielded a Duration of 0 h.
Consider `CC1(C)C(=O)Nc2cc3[nH]c(-c4nc[nH]n4)nc3cc21`, for which the values for the ED1.5 in the assay listed under Rattus norvegicus [1] and in the assay listed under Felis catus [4] were 0.1 mg/kg and 0.02 mg/kg, respectively. Further, the Max in the assay with Rattus norvegicus [8] is 3.1 mHg s-1.
For `CN(C)c1ccc(-c2nc3cc4c(cc3[nH]2)C(C)(C)C(=O)N4)cc1`, the ED1.5 in the assay listed under Rattus norvegicus [1] was >3 mg/kg.
The same measure, in the same setting: the result for `CC1(C)C(=O)Nc2cc3[nH]c(-c4ccc(O)cc4)nc3cc21` reads >3 mg/kg.
For `CC1(C)C(=O)Nc2cc3[nH]c(-c4ccc(-n5ccnc5)cc4)cc3cc21`, the ED1.5 in the assay filed under Rattus norvegicus [1] is >3 mg/kg.
`CC1(C)C(=O)Nc2cc3[nH]c(-c4ccc(O)nn4)nc3cc21` registered an ED1.5 in the assay listed under Rattus norvegicus [1] of 0.07 mg/kg. The Max in the assay on Rattus norvegicus [8] came out at 3.3 mHg s-1.
With `CC1(C)C(=O)Nc2cc3[nH]c(-c4ccco4)nc3cc21`, the ED1.5 in the assay filed under Rattus norvegicus [1] was determined as 0.07 mg/kg; in the assay listed under Felis catus [4], 0.06 mg/kg; in the assay listed under Canis familiaris [6] it was 0.06 mg/kg. Further, the Time in the assay on Canis familiaris [3] turned out to be 40 min. For the same molecule, the Max in the assay on Canis familiaris [10] was found to be 2.7 mHg/s; in the assay with Rattus norvegicus [8], 2.9 mHg s-1. Besides, the Duration with Canis familiaris [7] came out at 2 h.
For the molecule `CCn1c(O)nc2cc3[nH]c(-c4ccnnc4)nc3cc21`, the ED1.5 in the assay listed under Rattus norvegicus [1] came to 0.04 mg/kg; in the assay listed under Felis catus [4], 0.02 mg/kg. The same molecule showed a Max with Rattus norvegicus [8] of 3.2 mHg s-1.
As to `CC1(C)C(=O)Nc2cc3[nH]c(-c4cnc5ccccc5c4)nc3cc21`, the ED1.5 in the assay filed under Rattus norvegicus [1] was >3 mg/kg.
In the assay filed under Felis catus [4], `CC1(C)C(=O)Nc2cc3[nH]c(-c4ccnnc4)cc3cc21` showed an ED1.5 of 0.01 mg/kg.
In the case of `Oc1nc2cc3nc(-c4ccncc4)[nH]c3cc2o1`, the results for the ED1.5 in the assay filed under Rattus norvegicus [1], in the assay filed under Felis catus [4] and in the assay filed under Canis familiaris [6] were 0.52 mg/kg, 0.06 mg/kg and 0.12 mg/kg, respectively. Further, the Max with Canis familiaris [10] was found to be 2.6 mHg/s; in the assay on Rattus norvegicus [11], 4.1. The molecule further showed a Duration in the assay with Canis familiaris [7] of 0 h.
For the molecule `CC1(C)C(=O)Nc2cc3[nH]c(S)nc3cc21`, the ED1.5 in the assay filed under Rattus norvegicus [1] came to 0.55 mg/kg; in the assay listed under Felis catus [4], 0.06 mg/kg. In the assay with Rattus norvegicus [8], this molecule displayed a Max of 3.5 mHg s-1.
On to `Cn1c(-c2ccncc2)nc2cc3c(cc21)NC(=O)C3(C)C`, for which the ED1.5 in the assay filed under Rattus norvegicus [1] was >3 mg/kg.
In the case of `CCCn1c(O)nc2cc3[nH]c(-c4ccncc4)nc3cc21`, the ED1.5 in the assay filed under Rattus norvegicus [1] was 1 mg/kg. The molecule further gave a Max in the assay with Rattus norvegicus [8] of 1.6 mHg s-1.
For `CC1(C)C(=O)Nc2cc3[nH]c(-c4c[nH]cn4)nc3cc21`, the ED1.5 came to 0.12 mg/kg in the assay filed under Rattus norvegicus [1] and 0.07 mg/kg in the assay filed under Canis familiaris [6]. The Max with Canis familiaris [2] was determined as 2.7 mHg s-1. In the assay on Canis familiaris [3], this molecule gave a Time of 120 min. This molecule also came in with a Duration in the assay on Canis familiaris [7] of 2 h.
With `COc1ccccc1-c1nc2cc3c(cc2[nH]1)C(C)(C)C(=O)N3`, the ED1.5 in the assay listed under Rattus norvegicus [1] and in the assay listed under Felis catus [4] was >3 mg/kg in each case.
With `CC1(C)C(=O)Nc2cc3[nH]c(-c4cccs4)nc3cc21`, the values for the ED1.5 in the assay listed under Rattus norvegicus [1] and in the assay listed under Felis catus [4] were 0.12 mg/kg and 0.07 mg/kg, respectively.
For the molecule `Cc1cc2cc3c(cc2[nH]1)NC(=O)C3(C)C`, the ED1.5 in the assay filed under Rattus norvegicus [1] is >3 mg/kg.
On the same count and under the same terms, as for `Cc1nc2cc3nc(O)oc3cc2[nH]1`, the figure is >3 mg/kg.
On the same count and under the same terms, the result for `Cn1c(O)nc2cc3[nH]c(O)nc3cc21` reads >3 mg/kg.
For `CC1(C)C(=O)Nc2cc3[nH]c(-c4ccccc4)nc3cc21`, the values for the ED1.5 in the assay listed under Rattus norvegicus [1] and in the assay filed under Felis catus [4] were 0.37 mg/kg and 0.15 mg/kg, respectively. For the same molecule, the Max in the assay with Felis catus [12] was determined as 3 mmHg s-1; in the assay on Rattus norvegicus [11], 4.2. For the same molecule, the Duration with Canis familiaris [7] amounted to 0 h.
`CN1C(=O)C(C)(C)c2cc3nc(-c4ccncc4)n(C)c3cc21`: in the assay listed under Rattus norvegicus [1], the ED1.5 was >3 mg/kg.
With `CC1(C)C(=O)Nc2cc3[nH]c(N)nc3cc21`, the ED1.5 in the assay listed under Rattus norvegicus [1] is >3 mg/kg.
For the molecule `COc1ccc(-c2nc3cc4c(cc3[nH]2)C(C)(C)C(=O)N4)cc1`, the ED1.5 in the assay listed under Rattus norvegicus [1] was >3 mg/kg.
Take `CC1(C)C(=O)Nc2cc3[nH]c(-c4ccc(-n5ccnc5)cc4)nc3cc21`: the ED1.5 in the assay filed under Rattus norvegicus [1] turned out to be 1 mg/kg; in the assay listed under Felis catus [4] it was 0.25 mg/kg. In the assay on Rattus norvegicus [11], this molecule came in with a Max of 2.8.
Turning to `COc1cc([S+](C)[O-])ccc1-c1nc2cc3c(cc2[nH]1)C(C)(C)C(=O)N3` (centres undefined), the ED1.5 in the assay listed under Rattus norvegicus [1] was >3 mg/kg.
As for `CC1(C)C(=O)Nc2cc3[nH]c(-c4ccc[nH]4)nc3cc21`, the values for the ED1.5 in the assay listed under Rattus norvegicus [1], in the assay filed under Felis catus [4] and in the assay listed under Canis familiaris [6] were 0.45 mg/kg, 0.07 mg/kg and 0.32 mg/kg, respectively. Moreover, the Max in the assay with Canis familiaris [2] is 1.9 mHg s-1; in the assay on Felis catus [12], 2.3 mmHg s-1; with Rattus norvegicus [11], 2.6.
Regarding `CC1(C)C(=O)Nc2cc3[nH]c(-c4ccnc5ccccc45)nc3cc21`, in the assay listed under Rattus norvegicus [1], the ED1.5 turned out to be 2 mg/kg. In the assay with Rattus norvegicus [8], this molecule registered a Max of 1.8 mHg s-1.
`C/C=C/c1nc2cc3c(cc2[nH]1)C(C)(C)C(=O)N3`: the ED1.5 in the assay listed under Rattus norvegicus [1] was >3 mg/kg.
For the molecule `CC1(C)C(=O)Nc2cc3[nH]c(-c4cncnc4)nc3cc21`, the ED1.5 in the assay filed under Rattus norvegicus [1] is 0.045 mg/kg; in the assay filed under Felis catus [4] it was 0.02 mg/kg. In the assay on Rattus norvegicus [8], this molecule came in with a Max of 3.1 mHg s-1.
With `CN1C(=O)C(C)(C)c2cc3[nH]c(-c4ccncc4)nc3cc21`, the ED1.5 in the assay filed under Rattus norvegicus [1] is >3 mg/kg.
`CC1(C)C(=O)Nc2cc3[nH]c(-c4ccncc4)cc3cc21`: the ED1.5 in the assay filed under Rattus norvegicus [1] worked out at 0.16 mg/kg; in the assay listed under Felis catus [4], 0.11 mg/kg. The molecule further returned a Max in the assay on Rattus norvegicus [8] of 3.4 mHg s-1.
In the case of `C=C(C)c1nc2cc3c(cc2[nH]1)C(C)(C)C(=O)N3`, in the assay filed under Rattus norvegicus [1], the ED1.5 is >3 mg/kg.
The same measure, in the same setting: as for `CC1(C)C(=O)Nc2cc3[nH]c(-c4cc5ccccc5[nH]4)nc3cc21`, the figure is >3 mg/kg.
